How the values were obtained:
[1] = system: LH-induced ovarian follicle rupture; assay: ovarian hyperstimulation (superovulation) model: counting the oocytes released into the oviducts; assay type: in vivo, CD1 mice; conditions: for number of oocytes released into the oviducts compared with the control group: oocytes counted 18 h after hCG
Description: The effect of the combined administration of ulipristal acetate (UPA) and of a non-steroidal anti-inflammatory agent (NSAID) on LH-induced ovarian follicle rupture was evaluated in an animal model of ovarian hyperstimulation (superovulation model).
(§1) 24 to 28-day-old immature CD1 mice were subjected to ovarian hyperstimulation by injection of 5 IU of PMSG (pregnant mare's serum gonadotropin) followed, 48 h later, by 5 IU of hCG (chorionic gonadotropin hormone) intraperitoneally. The mice were divided up into several groups, each of 10 mice. 8 hours after the hCG injection, the mice were administered, intraperitoneally, with either the compound(s) to be tested, or the placebo (vehicle). The mice were euthanized 18 hours after the hCG injection. The effect of the compound(s) on follicular rupture and therefore ovulation was determined by counting the oocytes released into the oviducts. In experiment series No. 2, a morphological and histological examination of the ovaries was carried out so as to evaluate the presence of unruptured follicles and/or of yellow bodies in the ovaries of each group of animals.
Series 1: • Group 1: placebo • Group 2: 3 mg/kg of piroxicam • Group 3: 10 mg/kg of piroxicam • Group 4: 30 mg/kg of piroxicam.
Series 2: • Group 1: placebo • Group 2: 40 mg/kg of ulipristal acetate • Group 3: 40 mg/kg of ulipristal acetate+3 mg/kg of piroxicam • Group 4: 40 mg/kg of ulipristal acetate+30 mg/kg of piroxicam. […]

[2] = system: LH-induced ovarian follicle rupture; assay: morphological and histological examination of the ovaries (unruptured follicles, yellow bodies) in the superovulation model; assay type: in vivo, CD1 mice; conditions: 40 mg/kg UPA in the absence of piroxicam, compared with groups 3 and 4
Description: as §1

[3] = system: follicular rupture; conditions: administration after the LH peak; cited from earlier work
[4] = single dose of 30 mg within 72 or 120 hours after sexual intercourse; cited from earlier work

CC(C)Cc1ccc(C(C)C(=O)O)cc1 (stereo not drawn) [ibuprofen]
effect on ovulation compared with the control group ([1]; ibuprofen alone, dose between 15 mg and 150 mg (per kg)): no significant effect

CN1C(C(=O)Nc2ccccn2)=C(O)c2ccccc2S1(=O)=O [piroxicam]
number of oocytes released into the oviducts compared with the control group ([1]; piroxicam 3 mg/kg i.p. 8 h after hCG): does not significantly reduce
number of oocytes released into the oviducts compared with the control group ([1]; piroxicam 10 mg/kg i.p. 8 h after hCG): does not significantly reduce
number of oocytes released into the oviducts compared with the control group ([1]; piroxicam 30 mg/kg i.p. 8 h after hCG): significantly reduce

CC(=O)O[C@]1(C(C)=O)CCC2C3CCC4=CC(=O)CCC4=C3[C@@H](c3ccc(N(C)C)cc3)C[C@@]21C (stereo partly drawn) [ulipristal acetate, 17α-acetoxy-11β-[4-N,N-dimethylaminophenyl)-19-norpregna-4,9-diene-3,20-dione]
yellow bodies (corpus luteum) in histological sections [2]: more numerous
mean number of oocytes released compared with the control group ([1]; 40 mg/kg UPA 8 h after hCG injection, piroxicam series 2): approximately −50%
number of oocytes released compared with the control group ([1]; group 2: 40 mg/kg ulipristal acetate, ibuprofen series 2): significant decrease
inhibition of follicular rupture during the 5 days following administration, cases [3]: 8.3%
prevention of unwanted pregnancy after unprotected or poorly protected sexual intercourse [4]: safe and effective
